# Measured values reported in patent US7705047B2, “Amidoacetonitrile derivatives” (Novartis AG, priority 2003, dated 2010).
# Test system: Trichostrongylus colubriformis and Haemonchus contortus
# Experiment: In-vivo test on Trichostrongylus colubriformis and Haemonchus contortus on Mongolian gerbils using peroral application
# Parameters: species or system Mongolian gerbils (Meriones unguiculatus)
# Details: Mongolian gerbils infected with T. colubriformis and H. contortus, dose of 16 mg/kg, worm count 3 days after treatment
# From the text: 1. In-vivo Test on Trichostrongylus colubriformis and Haemonchus contortus on Mongolian Gerbils (Meriones unguiculatus) using Peroral Application Six to eight week old Mongolian gerbils are infected through a stomach tube with ca. 2000 third instar larvae each of T. colubriformis and H. contortus. […] On day 9 (3 days after treatment), when most of the H. contortus that are still present are late 4th instar larvae and most of the T. colubriformis are immature adults, the gerbils are killed in order to count the worms. The efficacy is calculated as the % reduction of the number of worms in each gerbil, compared with the geometric average of number of worms from 6 infected and untreated gerbils.
smiles,measurement,value
"CC(C#N)(COc1cc(C#N)ccc1Oc1ccc(Cl)cc1Cl)NC(=O)c1ccc(OC(F)(F)F)cc1 (stereo not shown) [Compound 1.47, N-[1-cyano-1-methyl-2-(5-cyano-2-{2,4-dichlorophenoxy}-phenoxy)-ethyl]-4-trifluoromethoxybenzamide]",elimination of the nematode infestation,complete elimination
